The test system of assay [1] is Enterococcus faecalis ATCC 29212. The assay is described as follows: In vitro antienterococcal activity, microtitration broth MIC. The format is cell-based.
Assay [2] has as its system Staphylococcus aureus ATCC 29213. The experiment in a line: In vitro antistaphylococcal activity, microtitration broth MIC. The settings on record: for MIC: Staphylococcus aureus. It counts as cell-based.
In assay [3] the test system is methicillin-resistant S. aureus SA 630. The description is as above. The settings on record: Staphylococcus aureus. The format is cell-based.
The test system of assay [4] is methicillin-resistant S. aureus (MRSA) 63718. Described as above. The format is cell-based. Conditions: Staphylococcus aureus.
In assay [5] the test system is vancomycin-resistant E. faecalis (VRE) 342B. The assay is described as follows: In vitro antienterococcal activity, microtitration broth MIC. It counts as cell-based, Enterococcus faecalis. Conditions: 24 h.
A further assay deals with THP-1 cells. The assay is described as follows: Cell death assay by flow cytometry (Annexin V / LIVE/DEAD). The format is cell-based, human. The settings on record: serum-free medium, 24 h. On the procedure: Subsequently, compounds 2k and 2q were selected for analysis by flow cytometry and cytotoxic effects were detected after treatment of cells by 2k and 2q in serum-free medium at two selected concentrations, 1.0 µM and 0.5 µM, respectively. […] Moreover, 2k increased the number of dead cells (20%) (Figure 2). […] Thus, it can be assumed that 2k attenuates cell metabolism.
Annexin V eFluor450 (Invitrogene, Waltham, MA, USA) with LIVE/DEAD Fixable Far Red Dead Cell Stain Kit (Invitrogene) were used for the analysis of cell death. THP-1 cells resuspended in serum-free medium and treated by two selected drugs, such as 2q and 2k, by IC50 concentrations, 0.5 µM and 1.0 µM, respectively, for 24 h. Cells were double-stained by AnnexinV eFluor 450 (1:20) and LIVE/DEAD Fixable Far Red (3:1000). Finally, the cells were analysed by flow cytometer (Amnis CellStream; Luminex, Austin, TX, USA) and the data were evaluated by CellStream Analysis 1.2.55 software. The dot plots were divided into four quadrants. Live cells (low left quadrant), apoptosis (upper-left quadrant) and necrosis as a terminal stage of cell death (upper-right quadrant) were distinguished. Experiments were performed in duplicates and in three independent repetitions.

Where [6] appears, read: ATCC29212, 24 h, E. faecalis reference strain, read-out: log(1/MIC [M]) EF (converted).
The mark [7] stands for this setting: ATCC29212, E. faecalis reference strain, 24 h, read-out: MIC EF.
Where [8] appears, read: ATCC29213, 24 h, S. aureus ATCC 29213, read-out: log(1/MIC [M]) SA (converted).
The mark [9] stands for this setting: ATCC29213, S. aureus ATCC 29213, 24 h, read-out: MIC SA.
[10] abbreviates: 24 h, MRSA SA 630, read-out: log(1/MIC [M]) MRSA2 (converted).
Where [11] appears, read: MRSA SA 630, 24 h, read-out: MIC MRSA2.
The mark [12] stands for this setting: 24 h, MRSA 63718, read-out: log(1/MIC [M]) MRSA1 (converted).
The mark [13] stands for this setting: MRSA 63718, 24 h, read-out: MIC MRSA1.
Where [14] appears, read: read-out: log(1/MIC [M]) VRE1 (converted).

Structures are written as SMILES. Converted amounts (≈) assume the structure as drawn. Where two headings read alike, the source gives them in different places. A value given as a limit tells only on which side of the number the result lay.

Turning to `O=C(/C=C/c1ccc(Cl)cc1)Nc1cccc(C(F)(F)F)c1` [1i, (2E)-3-(4-Chlorophenyl)-N-[3-(trifluoromethyl)phenyl]prop-2-enamide], the MIC in assay [1] (setting [6]) is over 0.000794 M; in assay [1] (setting [7]), over 0.000786 M; in assay [2] (setting [8]) it was 6.17e-06 M (≈ 2.01 µg/mL); in assay [2] (setting [9]), 6.14e-06 M (≈ 2 µg/mL); in assay [3] (setting [10]), 3.09e-06 M (≈ 1.01 µg/mL); in assay [3] (setting [11]), 3.07e-06 M (≈ 1 µg/mL). The MIC in assay [4] (setting [12]) is 6.17e-06 M (≈ 2.01 µg/mL); in assay [4] (setting [13]), 6.14e-06 M (≈ 2 µg/mL); in assay [5] (read-out: MIC VRE1), over 0.000786 M; in assay [5] (setting [14]), over 0.000794 M.

On to `O=C(/C=C/c1ccc(Cl)cc1)Nc1cc(Cl)cc(Cl)c1` [1p, (2E)-3-(4-Chlorophenyl)-N-(3,5-dichlorophenyl)prop-2-enamide], for which the MIC in assay [1] (setting [6]) was over 0.000776 M; in assay [1] (setting [7]), over 0.000783 M; in assay [2] (setting [8]) it was 3.8e-07 M (≈ 0.124 µg/mL); in assay [2] (setting [9]), 3.83e-07 M (≈ 0.125 µg/mL); in assay [3] (setting [10]), 3.8e-07 M (≈ 0.124 µg/mL); in assay [3] (setting [11]), 3.83e-07 M (≈ 0.125 µg/mL). Further, the MIC in assay [4] (setting [12]) is 3.8e-07 M (≈ 0.124 µg/mL); in assay [4] (setting [13]), 3.83e-07 M (≈ 0.125 µg/mL); in assay [5] (read-out: MIC VRE1), over 0.000783 M; in assay [5] (setting [14]), over 0.000776 M. In addition, in assay [2], the “activity against S. aureus and MRSA isolates (in words)” value (shortened to “activity”) is “submicromolar”.

Turning to `O=C(/C=C/c1ccc(Cl)cc1)Nc1cc(C(F)(F)F)cc(C(F)(F)F)c1` [1q, (2E)-N-[3,5-bis(Trifluoromethyl)phenyl]-3-(4-chlorophenyl)prop-2-enamide], the MIC in assay [1] (setting [6]) was 0.000324 M (≈ 127 µg/mL); in assay [1] (setting [7]) it was 0.000325 M (≈ 128 µg/mL); in assay [2] (setting [8]), 3.16e-07 M (≈ 0.125 µg/mL); in assay [2] (setting [9]), 3.18e-07 M (≈ 0.125 µg/mL); in assay [3] (setting [10]) it was 3.16e-07 M (≈ 0.125 µg/mL); in assay [3] (setting [11]) it was 3.18e-07 M (≈ 0.125 µg/mL). The MIC in assay [4] (setting [12]) is 3.16e-07 M (≈ 0.125 µg/mL); in assay [4] (setting [13]) it was 3.18e-07 M (≈ 0.125 µg/mL); in assay [5] (read-out: MIC VRE1), 0.00065 M (≈ 256 µg/mL); in assay [5] (setting [14]), 0.000646 M (≈ 254 µg/mL). The “activity” value in assay [2] is recorded as “submicromolar”.

In the case of `O=C(/C=C/c1ccc(Cl)c(Cl)c1)Nc1ccccc1` [2a, (2E)-3-(3,4-Dichlorophenyl)-N-phenylprop-2-enamide], the MIC in assay [1] (setting [6]) is 0.000871 M (≈ 254 µg/mL); in assay [1] (setting [7]), 0.000876 M (≈ 256 µg/mL); in assay [2] (setting [8]), 1.38e-05 M (≈ 4.03 µg/mL); in assay [2] (setting [9]), 1.36e-05 M (≈ 3.97 µg/mL); in assay [3] (setting [10]), over 0.000871 M; in assay [3] (setting [11]), over 0.000876 M. Besides, the MIC was over 0.000871 M in assay [4] (setting [12]), over 0.000876 M in assay [4] (setting [13]), over 0.000876 M in assay [5] (read-out: MIC VRE1) and over 0.000871 M in assay [5] (setting [14]).

Regarding `O=C(/C=C/c1ccc(Cl)c(Cl)c1)Nc1cccc(C(F)(F)F)c1` [2i, (2E)-3-(3,4-Dichlorophenyl)-N-[3-(trifluoromethyl)phenyl]prop-2-enamide], the MIC is 2.24e-05 M (≈ 8.06 µg/mL) in assay [1] (setting [6]); 2.22e-05 M (≈ 8 µg/mL) in assay [1] (setting [7]); 1.38e-06 M (≈ 0.497 µg/mL) in assay [2] (setting [8]); 1.39e-06 M (≈ 0.501 µg/mL) in assay [2] (setting [9]); 1.38e-06 M (≈ 0.497 µg/mL) in assay [3] (setting [10]); 1.39e-06 M (≈ 0.501 µg/mL) in assay [3] (setting [11]). In addition, the MIC in assay [4] (setting [12]) was 6.92e-07 M (≈ 0.249 µg/mL); in assay [4] (setting [13]), 6.94e-07 M (≈ 0.25 µg/mL); in assay [5] (read-out: MIC VRE1), 2.22e-05 M (≈ 8 µg/mL); in assay [5] (setting [14]) it was 2.24e-05 M (≈ 8.06 µg/mL).

On to `O=C(/C=C/c1ccc(Cl)c(Cl)c1)Nc1ccc(C(F)(F)F)cc1` [2j, (2E)-3-(3,4-Dichlorophenyl)-N-[4-(trifluoromethyl)phenyl]prop-2-enamide], for which the MIC was 1.12e-05 M (≈ 4.04 µg/mL) in assay [1] (setting [6]); 1.11e-05 M (≈ 4 µg/mL) in assay [1] (setting [7]); 6.92e-07 M (≈ 0.249 µg/mL) in assay [2] (setting [8]); 6.94e-07 M (≈ 0.25 µg/mL) in assay [2] (setting [9]); 3.72e-07 M (≈ 0.134 µg/mL) in assay [3] (setting [10]); 3.71e-07 M (≈ 0.134 µg/mL) in assay [3] (setting [11]). Further, the MIC was 3.72e-07 M (≈ 0.134 µg/mL) in assay [4] (setting [12]), 3.71e-07 M (≈ 0.134 µg/mL) in assay [4] (setting [13]), 1.11e-05 M (≈ 4 µg/mL) in assay [5] (read-out: MIC VRE1) and 1.12e-05 M (≈ 4.04 µg/mL) in assay [5] (setting [14]). For the same compound, the “activity” value in assay [2] is reported as “submicromolar”.

In the case of `O=C(/C=C/c1ccc(Cl)c(Cl)c1)Nc1ccc(OC(F)(F)F)cc1` [2k, (2E)-3-(3,4-Dichlorophenyl)-N-[4-(trifluoromethoxy)phenyl]prop-2-enamide], in the assay on THP-1 cells (2k 1.0 µM), the “number of dead cells” value is given as 20%. Further, the MIC in assay [1] (setting [6]) was 4.68e-06 M (≈ 1.76 µg/mL); in assay [1] (setting [7]) it was 1.06e-05 M (≈ 3.99 µg/mL); in assay [2] (setting [8]), 2.95e-07 M (≈ 0.111 µg/mL); in assay [2] (setting [9]), 1.33e-06 M (≈ 0.5 µg/mL); in assay [3] (setting [10]), 1.32e-06 M (≈ 0.496 µg/mL); in assay [3] (setting [11]) it was 1.33e-06 M (≈ 0.5 µg/mL). Moreover, the MIC in assay [4] (setting [12]) is 1.32e-06 M (≈ 0.496 µg/mL); in assay [4] (setting [13]), 1.33e-06 M (≈ 0.5 µg/mL); in assay [5] (read-out: MIC VRE1), 2.13e-05 M (≈ 8.01 µg/mL); in assay [5] (setting [14]), 2.14e-05 M (≈ 8.04 µg/mL).

Take `O=C(/C=C/c1ccc(Cl)c(Cl)c1)Nc1cc(C(F)(F)F)cc(C(F)(F)F)c1` [2q, (2E)-N-[3,5-bis(Trifluoromethyl)phenyl]-3-(3,4-dichlorophenyl)prop-2-enamide]: the “apoptosis (in words)” value with THP-1 cells (2q 0.5 µM) was “not observed”. Also, the “necrosis (in words)” value with THP-1 cells (2q 0.5 µM) is “significantly induced”. In addition, the MIC in assay [1] (setting [6]) was 1.07e-05 M (≈ 4.59 µg/mL); in assay [1] (setting [7]) it was 4.67e-06 M (≈ 2 µg/mL); in assay [2] (setting [8]), 1.32e-06 M (≈ 0.564 µg/mL); in assay [2] (setting [9]), 2.92e-07 M (≈ 0.125 µg/mL); in assay [3] (setting [10]), 1.35e-07 M (≈ 0.0578 µg/mL); in assay [3] (setting [11]), 1.36e-07 M (≈ 0.0582 µg/mL). The MIC was 1.35e-07 M (≈ 0.0578 µg/mL) in assay [4] (setting [12]), 1.36e-07 M (≈ 0.0582 µg/mL) in assay [4] (setting [13]), 9.34e-06 M (≈ 4 µg/mL) in assay [5] (read-out: MIC VRE1) and 9.33e-06 M (≈ 4 µg/mL) in assay [5] (setting [14]). Also, in assay [2], the “activity” value is given as “submicromolar”.

These data come from PMC8951032, “Study of Biological Activities and ADMET-Related Properties of Novel Chlorinated N-arylcinnamamides” (International Journal of Molecular Sciences, 2022).
